Drawing on article PMC3734245, “Surface Display and Bioactivity of Bombyx mori Acetylcholinesterase on Pichia pastoris” (PLoS ONE, 2013), this text covers IC50 for 13 molecules.

The structures appear in SMILES notation.

The target of this assay is T1, displayed BmAChE (Bombyx mori, UniProt A5A2M5).
T1 construct: signal peptide and hydrophobic C-terminal tail removed; N-terminal FLAG tag; (Gly4Ser)3 linker to S. cerevisiae AGalpha1 anchor at C-terminus; bmace about 1900 bp; primers encode N-terminal RSWANH and C-terminal TGPYSS
T1 sequence (A5A2M5 entry or part of it): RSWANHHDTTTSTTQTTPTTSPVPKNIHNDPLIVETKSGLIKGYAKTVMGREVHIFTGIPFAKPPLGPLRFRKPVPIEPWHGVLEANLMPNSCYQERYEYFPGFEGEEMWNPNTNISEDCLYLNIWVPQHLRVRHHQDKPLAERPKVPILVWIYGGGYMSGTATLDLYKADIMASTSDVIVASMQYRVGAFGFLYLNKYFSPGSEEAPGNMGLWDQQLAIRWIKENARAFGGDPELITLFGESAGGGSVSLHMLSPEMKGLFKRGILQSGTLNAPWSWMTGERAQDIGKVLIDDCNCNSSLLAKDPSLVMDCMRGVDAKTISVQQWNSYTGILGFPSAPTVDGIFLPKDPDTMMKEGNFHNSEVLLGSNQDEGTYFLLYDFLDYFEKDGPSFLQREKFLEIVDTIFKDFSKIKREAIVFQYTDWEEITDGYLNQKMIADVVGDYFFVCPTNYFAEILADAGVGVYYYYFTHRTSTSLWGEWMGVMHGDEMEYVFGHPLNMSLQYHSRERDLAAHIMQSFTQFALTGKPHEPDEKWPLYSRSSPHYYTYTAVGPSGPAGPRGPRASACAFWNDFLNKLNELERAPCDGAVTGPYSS
In words: Ellman assay, yeast cell suspension displaying the enzyme. Format: cell-based.
`CNC(=O)ON=C(C)SC` [methomyl] yielded an IC50 of 64.1 nM.

For `COP(N)(=S)Oc1ccccc1C(=O)OC(C)C` (stereo not shown) [isocarbophos], the IC50 was 910 nM.

Turning to `CNC(=O)Oc1ccccc1C(C)C` [isoprocarb], the IC50 worked out at 11.1 nM.

Regarding `COP(=O)(OC)OC=C(Cl)Cl` [dichlorphos], the midpoint of inhibition, the IC50, lay at 903 nM. Compared with the last molecule, the IC50 is about 81-fold higher.

The molecule `CCOC(=O)CC(SP(=S)(OC)OC)C(=O)OCC` (stereo not shown) [malathion] showed an IC50 of 1410 nM.

Molecule `CNC(=O)Oc1cc(C)c(SC)c(C)c1` [methiocarb] gave an IC50 of 65.8 nM.

`CNC(=O)Oc1cccc2c1OC(C)(C)C2` [carbofuran] came in with an IC50 of 1.92 nM.

`CNC(=O)CSP(=S)(OC)OC` [dimethoate] had an IC50 of 1140 nM.

Consider `CCCCN(CCCC)SN(C)C(=O)Oc1cccc2c1OC(C)(C)C2` [carbosulfan], for which the IC50 was found to be 113 nM.

For `COP(=O)(OC)C(O)C(Cl)(Cl)Cl` (stereo not shown) [trichlorphon], half-maximal inhibition (IC50) was put at 240 nM.

The molecule `CCOP(=S)(OCC)Oc1ccc([N+](=O)[O-])cc1` [parathion] returned a concentration for half-maximal inhibition (IC50) of 1130 nM.

`COP(N)(=O)SC` (stereo not shown) [methamidophos] returned an IC50 of 1070 nM.

Molecule `CNC(=O)Oc1ccc2c(c1)[C@]1(C)CCN(C)[C@@H]1N2C` [eserine] gave an IC50 of 41.7 nM.

By IC50 is commonly meant the point on the concentration scale where inhibition reaches its midpoint. High values mean weaker potency in that assay, low ones greater potency in that assay.
